# Experimental data: patent publication US7550456B2, “Substituted aryl cycloalkanoyl derivatives and methods of their use” (Wyeth, priority 2003, dated 2009)
# Where a name gives a salt, the structure may show the parent alone.
# Molecular target: T1, human hNET (Homo sapiens, UniProt P23975)
# T1 construct: expressed in transfected cells; host or cells: MDCK-Net6 (MDCK cells, stably transfected)
# Test: Norepinephrine (NE) uptake assay in MDCK-Net6 cells
# Format: cell-based
# Settings: 1 μM test compound, [3H]NE uptake, read-out: % Inhibition @ 1 μM (hNET)
# Outline: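 Radiolabelled NE uptake was counted by scintillation after NaOH lysis, with 1 µM desipramine defining non-specific uptake. EC50 came from a logistic dose-response fit.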
# T1 sequence (P23975 whole entry): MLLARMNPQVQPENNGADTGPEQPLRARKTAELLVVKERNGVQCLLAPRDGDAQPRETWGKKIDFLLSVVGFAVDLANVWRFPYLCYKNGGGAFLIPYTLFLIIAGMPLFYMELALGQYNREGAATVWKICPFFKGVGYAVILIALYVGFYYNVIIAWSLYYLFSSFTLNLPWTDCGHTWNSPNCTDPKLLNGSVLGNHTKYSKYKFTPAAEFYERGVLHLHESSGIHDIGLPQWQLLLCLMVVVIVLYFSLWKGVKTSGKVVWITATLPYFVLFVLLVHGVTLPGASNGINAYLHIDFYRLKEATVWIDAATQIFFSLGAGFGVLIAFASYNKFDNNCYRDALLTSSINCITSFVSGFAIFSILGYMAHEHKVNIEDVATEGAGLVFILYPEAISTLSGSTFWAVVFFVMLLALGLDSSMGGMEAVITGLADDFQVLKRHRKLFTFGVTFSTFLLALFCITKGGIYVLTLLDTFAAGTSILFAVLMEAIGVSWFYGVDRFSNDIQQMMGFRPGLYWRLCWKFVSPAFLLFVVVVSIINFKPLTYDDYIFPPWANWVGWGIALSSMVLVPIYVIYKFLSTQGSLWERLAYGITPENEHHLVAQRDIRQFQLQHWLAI
row,SMILES,inhibition at 1 µM [%]
1,"OC1(C(CN2CCNCC2)c2cccc(-c3ccc(F)c(F)c3)c2)CCCCC1 (centres unmarked) [Example 147, 1-[1-(3′,4′-difluoro-1,1′-biphenyl-3-yl)-2-piperazin-1-ylethyl]cyclohexanol dihydrochloride]",13
2,"CN1CCN(CC(c2ccc(-c3cccc([N+](=O)[O-])c3)cc2)C2(O)CCCCC2)CC1 (centres unmarked) [Example 178, 1-[2-(4-methylpiperazin-1-yl)-1-(3′-nitro-1,1′-biphenyl-4-yl)ethyl]cyclohexanol dihydrochloride]",33
3,"OC1(C(CN2CCNCC2)c2ccc(OCCc3ccc(F)cc3)cc2)CCCCC1 (centres unmarked) [Example 462, 1-(1-{4-[2-(4-fluorophenyl)ethoxy]phenyl}-2-piperazin-1-ylethyl)cyclohexanol dihydrochloride]",47
4,"OC1(C(CN2CCNCC2)c2ccc(OCc3ccccc3)c(F)c2)CCCCC1 (centres unmarked) [Example 413, 1-{1-[4-(benzyloxy)-3-fluorophenyl]-2-piperazin-1-ylethyl}cyclohexanol dihydrochloride]",76
5,"CC(C)COc1ccc(C(CN2CCN(C)CC2)C2(O)CCCCC2)cc1OC(F)(F)F (centres unmarked) [Example 407, 1-[1-[4-isobutoxy-3-(trifluoromethoxy)phenyl]-2-(4-methylpiperazin-1-yl)ethyl]cyclohexanol dihydrochloride]",12
6,"CN1CCN(CC(c2ccc(-c3cccc(C#N)c3)cc2)C2(O)CCCCC2)CC1 (centres unmarked) [Example 177, 1-[1-(3′-cyano-1,1′-biphenyl-4-yl)-2-(4-methylpiperazin-1-yl)ethyl]cyclohexanol dihydrochloride]",54
7,"OC1(C(CN2CCNCC2)c2ccccc2-c2ccccc2)CCCCC1 (centres unmarked) [Example 149, 1-[1-(1,1′-biphenyl-2-yl)-2-piperazin-1-ylethyl]cyclohexanol dihydrochloride]",31
8,"OC1(C(CN2CCNCC2)c2ccc(OCc3ccc(C(F)(F)F)cc3)cc2)CCCCC1 (centres unmarked) [Example 436, 1-[2-piperazin-1-yl-1-(4-{[4-(trifluoromethyl)benzyl]oxy}phenyl)ethyl]cyclohexanol dihydrochloride]",63
9,"CN1CCN(CC(c2ccc(OCc3ccccc3)c(Cl)c2)C2(O)CCCCC2)CC1 (centres unmarked) [Example 293, 1-[1-[4-(benzyloxy)-3-chlorophenyl]-2-(4-methylpiperazin-1-yl)ethyl]cyclohexanol dihydrochloride]",96
10,"C#Cc1cccc(C(CN2CCNCC2)C2(O)CCCCC2)c1 (centres unmarked) [Example 298, 1-[1-(3-ethynylphenyl)-2-piperazin-1-ylethyl]cyclohexanol dihydrochloride]",91
11,"CN1CCN(CC(c2ccc(OCc3ccccc3C(F)(F)F)cc2)C2(O)CCCCC2)CC1 (centres unmarked) [Example 441, 1-[2-(4-methylpiperazin-1-yl)-1-(4-{[2-(trifluoromethyl)benzyl]oxy}phenyl)ethyl]cyclohexanol dihydrochloride]",33
12,"OC1(C(CN2CCNCC2)c2cccc(-c3ccc(C(F)(F)F)cc3)c2)CCCCC1 (centres unmarked) [Example 249, 1-{2-piperazin-1-yl-1-[4′-(trifluoromethyl)-1,1′-biphenyl-3-yl]ethyl}cyclohexanol dihydrochloride]",32
13,"OC1(C(CN2CCNCC2)c2cccc(-c3cccc(OC(F)(F)F)c3)c2)CCCCC1 (centres unmarked) [Example 248, 1-{2-piperazin-1-yl-1-[3′-(trifluoromethoxy)-1,1′-biphenyl-3-yl]ethyl}cyclohexanol dihydrochloride]",7
14,"CN1CCN(CC(c2ccc(-c3ccccc3)cc2)C2(O)CCCCC2)CC1 (centres unmarked) [Example 158, 1-[1-(1,1′-biphenyl-4-yl)-2-(4-methylpiperazin-1-ylethyl]cyclohexanoldihydrochloride]",57
15,"OC1([C@@H](CN2CCNCC2)c2ccc(OCc3ccccc3)c(Cl)c2)CCCCC1 [Example 323, 1-{(1R)-1-[4-(benzyloxy)-3-chlorophenyl]-2-piperazin-1-ylethyl}cyclohexanol dihydrochloride]",95.8
16,"OC1(C(CN2CCNCC2)c2ccccc2-c2ccc3c(c2)OCO3)CCCCC1 (centres unmarked) [Example 151, 1-{1-[2-(1,3-benzodioxol-5-yl)phenyl]-2-piperazin-1-ylethyl}cyclohexanol dihydrochloride]",12
17,"COc1ccc(C(CN2CCNCC2)C2(O)CCCCC2)cc1OC(F)(F)F (centres unmarked) [Example 402, 1-{1-[4-methoxy-3-(trifluoromethoxy)phenyl]-2-piperazin-1-ylethyl}cyclohexanol dihydrochloride]",42

row,SMILES,inhibition at 1 µM [%]
1,"CN1CCN(CC(c2ccc(OCc3ccc(C(F)(F)F)cc3)cc2)C2(O)CCCCC2)CC1 (centres unmarked) [Example 437, 1-[2-(4-methylpiperazin-1-yl)-1-(4-{[4-(trifluoromethyl)benzyl]oxy}phenyl)ethyl]cyclohexanol dihydrochloride]",38
2,"C[C@@H]1CN(C[C@H](c2cccc(OC(F)(F)F)c2)C2(O)CCCCC2)CCN1 [Example 369, 1-{(1S)-2-[(3R)-3-methylpiperazin-1-yl]-1-[3-(trifluoromethoxy)phenyl]ethyl}cyclohexanol dihydrochloride]",90
3,"COc1ccc(C(CN2CCNCC2)C2(O)CCCCC2)cc1-c1ccc(C(F)(F)F)cc1 (centres unmarked) [Example 253, 1-{1-[6-methoxy-4′-(trifluoromethyl)-1,1′-biphenyl-3-yl]-2-piperazin-1-ylethyl}cyclohexanol dihydrochloride]",19
4,"N#Cc1cccc(-c2ccc(C(CN3CCNCC3)C3(O)CCCCC3)cc2)c1 (centres unmarked) [Example 168, 1-[1-(3′-cyano-1,1′-biphenyl-4-yl)-2-piperazin-1-ylethyl]cyclohexanol dihydrochloride]",66
5,"OC1([C@H](CN2CCNCC2)c2ccc(OCc3ccccc3)c(Cl)c2)CCCCC1 [Example 324, 1-{(1S)-1-[4-(benzyloxy)-3-chlorophenyl]-2-piperazin-1-ylethyl}cyclohexanol dihydrochloride]",98.4
6,"NC1CCN(CC(c2cccc(-c3ccc(Cl)c(Cl)c3)c2)C2(O)CCCCC2)CC1 (centres unmarked) [Example 152, 1-[2-(4-aminopiperidin-1-yl)-1-(3′,4′-dichloro-1,1′-biphenyl-3-yl)ethyl]cyclohexanol dihydrochloride]",1
7,"CN1CCN(CC(c2ccc(-c3ccccc3Cl)cc2)C2(O)CCCCC2)CC1 (centres unmarked) [Example 175, 1-[1-(2′-chloro-1,1′-biphenyl-4-yl)-2-(4-methylpiperazin-1-yl)ethyl]cyclohexanol dihydrochloride]",20
8,"CN1CCN(CC(c2ccc(OCCc3ccc(F)cc3)cc2)C2(O)CCCCC2)CC1 (centres unmarked) [Example 463, 1-[1-{4-[2-(4-fluorophenyl)ethoxy]phenyl}-2-(4-methylpiperazin-1-yl)ethyl]cyclohexanol dihydrochloride]",69
9,"OC1(C(CN2CCNCC2)c2cccc(OCc3ccccc3)c2)CCC1 (centres unmarked) [Example 111, 1-{1-[3-(benzyloxy)phenyl]-2-piperazin-1-ylethyl}cyclobutanol dihydrochloride]",-3
10,"Cc1ccc(-c2ccc(C(CN3CCN(C)CC3)C3(O)CCCCC3)cc2)cc1 (centres unmarked) [Example 181, 1-[1-(4′-methyl-1,1′-biphenyl-4-yl)-2-(4-methylpiperazin-1-yl)ethyl]cyclohexanol dihydrochloride]",31
11,"CN1CCN(C[C@H](c2ccc(OCc3ccccc3)c(Cl)c2)C2(O)CCCCC2)CC1 [Example 326, 1-[(1S)-1-[4-(benzyloxy)-3-chlorophenyl]-2-(4-methylpiperazin-1-yl)ethyl]cyclohexanol dihydrochloride]",99.7
12,"OC1(C(CN2CCNCC2)c2ccc(OCc3ccccc3)c(C(F)(F)F)c2)CCCCC1 (centres unmarked) [Example 263, 1-{1-[4-(benzyloxy)-3-(trifluoromethyl)phenyl]-2-piperazin-1-ylethyl}cyclohexanol dihydrochloride]",31
13,"OC1(C(CN2CCNCC2)c2ccc(OCc3ccc(Br)cc3F)cc2)CCCCC1 (centres unmarked) [Example 434, 1-(1-{4-[(4-bromo-2-fluorobenzyl)oxy]phenyl}-2-piperazin-1-ylethyl)cyclohexanol]",34
14,"OC1(C(CN2CCN(CC3CCCCC3)CC2)c2ccc(OC(F)(F)F)cc2)CCCCC1 (centres unmarked) [Example 286, 1-{2-[4-(cyclohexylmethyl)piperazin-1-yl]-1-[4-(trifluoromethoxy)phenyl]ethyl}cyclohexanol dihydrochloride]",78.6
15,"COc1cccc(-c2ccc(C(CN3CCNCC3)C3(O)CCCCC3)cc2)c1 (centres unmarked) [Example 170, 1-[1-(3′-methoxy-1,1′-biphenyl-4-yl)-2-piperazin-1-ylethyl]cyclohexanol dihydrochloride]",19
16,"CN1CCN(CC(c2ccc(OCc3ccc4ccccc4c3)cc2)C2(O)CCCCC2)CC1 (centres unmarked) [Example 433, 1-{2-(4-methylpiperazin-1-yl)-1-[4-(2-naphthylmethoxy)phenyl]ethyl}cyclohexanol]",49

# Same assay, conditions: 10 μM test compound (stated in the cell), [3H]NE uptake
row,SMILES,inhibition at 10 µM [%]
1,"CN1CCN(CC(c2ccc(Oc3ccccc3)cc2)C2(O)CCCCC2)CC1 (centres unmarked) [Example 308, 1-[2-(4-methylpiperazin-1-yl)-1-(4-phenoxyphenyl)ethy]cyclohexanol dihydrochloride]",35.9
2,"OC1(C(CN2CCNCC2)c2ccc(Oc3ccccc3)cc2)CCCCC1 (centres unmarked) [Example 307, 1-[1-(4-phenoxyphenyl)-2-piperazin-1-ylethyl]cyclohexanol dihydrochloride]",44.5
3,"COc1ccc(C(CN2CCN(C)CC2)C2(O)CCCCC2)cc1-c1cccc(OC(F)(F)F)c1 (centres unmarked) [Example 256, 1-[1-[6-methoxy-3′-(trifluoromethoxy)-1,1′-biphenyl-3-yl]-2-(4-methylpiperazin-1-yl)ethyl]cyclohexanol dihydrochloride]",72.8

# Same assay, conditions: [3H]NE uptake, test range 1 to 10,000 nM
row,SMILES,EC50 [nM]
1,"CN1CCN(CC(c2ccc(OCc3ccccc3)c(OC(F)(F)F)c2)C2(O)CCCCC2)CC1 (centres unmarked) [Example 408, 1-[1-[4-(benzyloxy)-3-(trifluoromethoxy)phenyl]-2-(4-methylpiperazin-1-yl)ethyl]cyclohexanol dihydrochloride]",398
2,"N#Cc1cccc(-c2ccc(C(CN3CCNCC3)C3(O)CCCCC3)cc2)c1 (centres unmarked) [Example 168, 1-[1-(3′-cyano-1,1′-biphenyl-4-yl)-2-piperazin-1-ylethyl]cyclohexanol dihydrochloride]",180
